Data as given in patent publication US20200338042A1, “USE OF DAPHNETIN IN TREATMENT OF AGE-RELATED COGNITIVE DECLINE” (XI'AN JIAOTONG UNIVERSITY, priority 2019, published 2020).

How the values were obtained:
Type in all cases: in vivo
Aβ40 = assay: ELISA detection of soluble Aβ40 in cerebral cortex tissues of APP/PS1 mice; details: Group AD+Daphnetin (APP/PS1 mice, 100 mg/kg/day intragastrically) compared to Group AD+ddH2O; one week after water maze; FIG. 2A
Source text: (§1) APP/PS1 transgenic mouse model as the Alzheimer's disease transgenic mouse model was used in the experiments. The APP/PS1 double-transgenic mice overexpressing human Aβ precursor protein (APP) and presenilin 1 (PS1) in the brains can simulate typical pathological and neurological symptoms, such as Aβ deposition and cognitive function degeneration, of human AD.
(§2) The contents of Aβ40 and Aβ42 in the brain were detected by the enzyme-linked immunosorbent assay (ELISA) method to observe the effect of daphnetin for ameliorating abnormal protein deposition of the mice.
(§3) Daphnetin was purchased from Nanjing Puyi Biotechnology Co., Ltd.; Aβ40 and […] ELISA detection kits were purchased from Invitrogen Corporation. […]
(§4) Aβ plaque is a significant pathological feature of Alzheimer's disease. As Aβ40 and Aβ42 are most common in the process of producing Aβ, the contents of soluble Aβ40 and Aβ42 in the cerebral cortex tissues were detected by the ELISA method.
(§5) First, the cortex tissue was homogenized using a guanidine salt buffer (5 mol/L guanidine hydrochloride/50 mmol Tris HCl), and the tissue homogenate was centrifuged at 4° C. for 10 minutes at 10,000 g. […] The absorbance (OD450) at a wavelength of 450 nm was measured by a FlexStage3 microplate reader. Protein quantification was performed by using BCA method for ELISA protein calibration. […]

Aβ42 = assay: ELISA detection of soluble Aβ42 in cerebral cortex tissues of APP/PS1 mice; details: Group AD+Daphnetin (APP/PS1 mice, 100 mg/kg/day intragastrically) compared to Group AD+ddH2O; one week after water maze; FIG. 2B
Source text: as §1, §2, §3, §4, §5

APP/PS1 transgenic mice = assay: Morris water maze experiment in APP/PS1 transgenic mice; details: for path length for finding the platform in water maze: FIG. 1B
Source text: as §1
A water maze experiment was used to observe the effect of daphnetin for improving the cognitive function of the mice.
The 3-month-old APP/PS1 transgenic mice and control mice were purchased from the Model Animal Center of Nanjing University. All mice were fed in an environment with a temperature from 23° C. to 25° C., a humidity of 60%, and a 12 h/12 h day/night light cycles. Mice had free access to food and water during the experiment.
After adapting to the feeding environment, the experimental mice were divided into four groups: 1) a group of wild type (WT) mice to which double-distilled water (ddH2O) was daily administered intragastrically (Group WT+ddH2O), the number (n) of the mice is 11 (n=11); 2) a group of wild type mice to which daphnetin was daily administered intragastrically at 100 mg/kg/day (Group WT+Daphnetin), n=12; 3) a group of APP/PS1 mice to which ddH2O was daily administered intragastrically (Group AD+ddH2O), n=15; 4) a group of APP/PS1 mice to which daphnetin was daily administered intragastrically at 100 mg/kg/day (Group AD+Daphnetin), n=14. The entire experiment was lasted for 12 months.
The daily intragastric administrations of daphnetin or ddH2O were lasting for 9 months to corresponding groups of mice before the water maze experiment.
Morris water maze experiment is a classic way to test spatial learning and memory abilities in mice. The experiment was conducted in a round swimming pool with a diameter of 120 cm, divided into four quadrants I, II, III, and IV. A small round platform with a diameter of 7.5 cm was placed in the center the quadrant IV, and submerged 1 cm below the water surface. Four different-shaped markers as visual cues were placed corresponding to the four quadrants on the curtain support around the swimming pool. During the experiment, the water temperature was kept at 25° C., the surroundings were kept quiet, and the swimming pool was isolated from the external environment by the curtain. Each mouse was allowed to swim freely in the swimming pool for 60 seconds (s) on the day before the formal experiment to adapt to the swimming environment. […] The camera placed on the top of the pool recorded the paths of the mice finding the hidden platform in the swimming pool. […] The times and distances that the mice travels to the platform recorded by the camera video tracking system were used to analyze the learning and memory of the mice. […]

## O=c1ccc2ccc(O)c(O)c2o1 [Daphnetin, 7,8-dihydroxycoumarin]
Aβ40
  level of Aβ40 in the cerebral cortex tissues: significantly reduced
Aβ42
  level of Aβ42 in the cerebral cortex tissues: significantly reduced
APP/PS1 transgenic mice; 5-day training, worded as AD+ddH2O relative to AD+Daphnetin (100 mg/kg/day intragastrically, 9 months), i.e. lower AUC with daphnetin, FIG. 1C
  AUC of swimming time (escape latency) in water maze, Group AD+ddH2O compared to Group AD+Daphnetin: increased significantly
APP/PS1 transgenic mice; day 4 of training, Group AD+Daphnetin (APP/PS1 mice, 100 mg/kg/day intragastrically, 9 months) compared to Group AD+ddH2O
  path length for finding the platform in water maze: significant shortened
APP/PS1 transgenic mice; day 5 of training, Group AD+Daphnetin (APP/PS1 mice, 100 mg/kg/day intragastrically, 9 months) compared to Group AD+ddH2O, FIG. 1A
  escape latency in water maze (time to find the escape platform): significantly shortened
APP/PS1 transgenic mice; day 5 of training, Group AD+Daphnetin (APP/PS1 mice, 100 mg/kg/day intragastrically, 9 months) compared to Group AD+ddH2O
  path length for finding the platform in water maze: significant shortened
